According to article PMC11530689, “Anti colorectal cancer activity and in silico studies of novel pyridine nortopsentin analog as cyclin dependent kinase 6 inhibitor” (Scientific Reports, 2024):

Key:
MCF7 cancer cell line = system: MCF7 cancer cell line; parameters: method as in PMID 28688277; details: cited from earlier work
CDK1 = system: CDK1; parameters: method as in PMID 28688277; details: cited from earlier work
P388 cell line = system: P388 cell line; parameters: method as in PMID 11425579; details: cited from earlier work
A549 cell line = system: A549 cell line; parameters: method as in PMID 11425579; details: cited from earlier work
HCT-116 cells = assay: MTT assay, IC50 determination; assay type: cell-based; details: Homo sapiens, HCT-116, colorectal cancer cells, comparator
Experimental: HCT-116 (colon cancer cell line) was obtained from the American Type Culture Collection (ATCC). The cancer cell line was grown in Dulbecco’s Modified Eagle’s Medium (DMEM) supplemented with 10% fetal bovine serum (FBS), penicillin/streptomycin (100 U/mL and 100 μg/mL, respectively) and 2 mM L-glutamine. The cells were maintained at 37 °C in 5% CO2.
The cytotoxic activity of nortopsintin analogs (4a–4j) was determined by the national cancer institute (NCI, Bethesda, Maryland, USA) against 60 different cancer cell lines at a single concentration of (10^−5 M). For the determination of IC50 value, we used MTT assay kit (Sigma) according to the manufacturer’s protocol. HCT-116 cells were seeded into a 96-well plate at a concentration of 20,000 cells/well. After 24 h, the media was aspirated and replaced with serum-free media containing serial dilutions of the 4i compound. The cells were treated for 48 h in triplicates. […] The percentage of cytotoxicity was calculated using the following equation: % Cytotoxicity = [1 − (AVx/AVNC)] × 100.
Where, AVx denotes the average absorbance of the sample and AVNC denotes the average absorbance of the negative control. The absorbance was measured at 570 nm with reference at 690 nm.

Compound: COCCn1cc(-c2nc(-c3c[nH]c4ncccc34)cs2)c2cc(OC)ccc21 [III]
- antitumor activity (MCF7 cancer cell line): demonstrated antitumor activity
- CDK1 activity in vitro (CDK1): inhibiting CDK1 activity in vitro

Compound: COc1ccc2c(-c3cc(C(F)(F)F)cc(-c4cn(S(=O)(=O)c5ccc(C)cc5)c5cc(OC)ccc45)n3)cn(S(=O)(=O)c3ccc(C)cc3)c2c1 [II, bis(indolyl)-4-trifluoromethylpyridine]
- IC50 (P388 cell line): 4.3 µM
- IC50 (A549 cell line): 1.7 µM

Compound: COc1cccc2c1C(=O)c1c(O)c3c(c(O)c1C2=O)C[C@@](O)(C(=O)CO)C[C@@H]3O[C@H]1C[C@H](N)[C@H](O)[C@H](C)O1 [doxorubicin, reference compound]
- IC50 (HCT-116 cells): 10.1 µM
